The values below come from ChEMBL document CHEMBL1125517, “Synthesis and antifolate evaluation of 10-ethyl-5-methyl-5,10- dideazaaminopterin and an alternative synthesis of 10-ethyl-10- deazaaminopterin (edatrexate)” (J Med Chem, 1992).

The test system of test [1] is L1210. Put plainly: Compound was evaluated for influx of L1210 cells. It counts as functional, cell-based. To be noted: Mus musculus.
The subject of test [2] is L1210. Put plainly: In vitro inhibition of L1210 cell growth. It counts as functional, cell-based. The note with it: Mus musculus.

The Km is the concentration of substrate that gives half-maximal velocity. In general, IC50 refers to the concentration that inhibits the measured activity by half. In the case of `CCC(Cc1cnc2nc(N)nc(N)c2n1)c1ccc(C(=O)NC(CCC(=O)O)C(=O)O)cc1` (centres undefined), the Km with L1210 [1] was 1.08 µM. Besides, the IC50 with L1210 [2] came out at 0.065 µM.

For `CN(Cc1cnc2nc(N)nc(N)c2n1)c1ccc(C(=O)N[C@@H](CCC(=O)O)C(=O)O)cc1` [METHOTREXATE], the Km with L1210 [1] worked out at 3.51 µM. In the test on L1210 [2], this compound registered an IC50 of 0.0034 µM.
